Measured values: patent US6994862B2, “Formulation solubilizing water-insoluble agents and preparation method thereof” (Korea Institute of Science and Technology, priority 2000, dated 2006)

Experiment: Release experiment of a pharmaceutical compound (dialysis bag, PBS pH 7.4, 37° C.)
Format: physicochemical
Conditions: within 5 hr; dialysis bag in PBS pH 7.4, 37° C.
Experimental: Dispersion was prepared by mixing 250 μL of the above liquid formulation with 1.75 mL of distilled water and shaken manually. The mixture was then added into a dialysis bag (MWCO=3,500, Spectra/Por^R, Spectrum Medical Industries, Inc., USA), both ends were tied with a closure, and placed into a 50 ml conical tube containing 10 ml of phosphate buffered saline (PBS, pH=7.4). The conical tube was placed in a 37° C. shaking water bath for the release experiment. The PBS solution located outside the dialysis tube was collected at regular intervals to analyze concentration of the pharmaceutical compound released from the dialysis bag by using Fluorescence spectroscopy (λex=370 nm, λem=480 nm). An aqueous solution where 0.7 mg of rifampicin was dissolved in 2 mL of distilled water was used as a control.
Release experiment was performed using the liquid formulation manufactured the same as in the experimental Example 1 with the exception that 0.7 mg of bromocresol green was used in place of rifampicin. The released drug was collected from the PBS solution and subsequently analyzed for its absorbance at 617 nm. An aqueous solution, where 0.7 mg of bromocresol green was dissolved in 2 mL of distilled water, was used as a control.

- drug released: more than 80%
Structure (SMILES): Cc1c(C2(c3cc(Br)c(O)c(Br)c3C)OS(=O)(=O)c3ccccc32)cc(Br)c(O)c1Br [bromocresol green]
